Reference: patent US12018011B2, “Macrocyclic compounds and compositions, and methods of preparing and using the same” (Kura Oncology, Inc., priority 2021, dated 2024)

Columns and labels:
[1] = molecular target: T1, Recombinant human farnesyl transferase (FTase) (Homo sapiens, UniProt P49356); test: FTase fluorescence assay (farnesylation of dansyl-GCVLS peptide); format: biochemical; details: recombinant human FTase 2.5 nM, Dansyl-GCVLS 85 nM, FPP 30 nM, 30° C., 50 minutes
T1 construct: purchased Crelux (Martinsried, Germany)

T24/83 cells = test: T24/83 cell proliferation assay (CellTiter-Glo); format: cell-based; details: Homo sapiens, 96 h, 4 days
From the text: (§1) T24/83 cell line was purchased from the European Collection of Authenticated Cell Cultures (Salisbury, UK). Recombinant human farnesyl transferase (FTase) and geranylgeranyl transferase type-1 (GGTase) were obtained from Crelux (Martinsried, Germany). Dansyl labelled GCVLS peptide was purchased from Bachem (Torrance, CA), and Dansyl labelled GCVLL peptide was purchased from Bio Synthesis (Lewisville, TX). Farnesyl Pyrophosphate (FPP) and Geranylgeranyl pyrophosphate (GGPP) were purchased from Cayman (Ann Arbor, MI).
Mutant oncogenic HRAS was originally identified in a human bladder carcinoma cell line called T24. T24/83 is a subline of T24 established more recently that has more favorable growth characteristics for in vitro assays. Thus, T24/83 is a well-characterized mutant HRAS-dependent cell line that is an ideal model for quantifying the HRAS-dependent antitumor activity of farnesyltransferase inhibitors.
T24/83 cells were inoculated into 384 well plates at 100 cells/well, and grown in the presence of inhibitor, 0.7% DMSO as a negative control, or 100 μM tipifarnib as a positive control, at 37° C. for 4 days. Cell viability was assessed using the CellTiter-Glo Kit (CTG) (Promega; Madison, WI). Luminescence was recorded using EnVision microplate reader (PerkinElmer; Waltham, MA). In this assay, tipifarmib was used as a positive control. All the assay plates passed the QC criteria (S/B, Z-factor).

[2] = molecular target: T2, geranylgeranyl transferase type-1 (GGTase) (Homo sapiens, UniProt P53609); test: GGTase fluorescence assay (dansyl-GCVLL peptide, GGPP); format: biochemical; details: GGTase 25 nM, Dansyl-GCVLL 10 μM, GGPP 10 μM, 30° C., 120 minutes
T2 construct: purchased Crelux (Martinsried, Germany)
From the text: as §1
Geranylgeranyl transferase (GGTase) is a closely related enzyme to farnesyl transferase (FTase). The two enzymes share a common regulatory chain but have distinct individual enzymatic domains. GGTase catalyses the addition of an alternative prenylated side chain to some of the same proteins that may also be farnesylated. Thus, selective inhibitory activity against FTase relative to GGTase is a critical characteristic for FTase inhibitors.
The IC50 value of the compounds disclosed herein as inhibitors of Ftase and/or GGTase, was determined by measuring the concentration (provided in nM) necessary to achieve inhibition of enzyme activity by 50% (IC50). […] Compounds having a low IC50 value against FTase, for example an IC50 (FTase)<100 nM, such as an IC50 (FTase)<10 nM, are preferred. Compounds having a low IC50 value against FTase and a high IC50 value against GGTase, for example an IC50 (FTase)<100 nM, such as an IC50 (FTase)<10 nM, and an IC50 (GGTase)>100 nM, are potent and selective inhibitors of FTase, and are particularly preferred.
The inhibition activities of the compounds disclosed herein against Ftase and GGTase were measured in the respective fluorescence assays as follows:
For the GGTase assay, GGTase (25 nM), Dansyl labelled GCVLL peptide (10 μM), GGPP (10 μM) and inhibitor were mixed in assay buffer (50 mM Tris, pH 7.5, 10 mM magnesium chloride, 10 μM zinc chloride, 0.08% CHAPS, 5 mM dithiothreitol) and incubated in a total volume of 20 μL at 30° C. for 120 minutes.
For both the FTase assay and GGTase assay, fluorescence intensity was detected (excitation at 340 nm and emission at 486 nm) using EnVision (PerkinElmer; Waltham, MA), IC50 determinations were performed using a sigmoidal dose-response model with Xlfit software (IDBS, Inc.; Boston, MA), and tipifarnib was used as a positive control. All the assay plates for each assay passed the QC criteria (S/B, Z factor).

[3] = Metabolic stability in human liver microsomes; format: in vitro ADME; details: human liver microsomes 0.5 mg protein/mL, test compound 1 μM, 37° C.; read-out: T1/2 in HLM
Method: (§2) The metabolic stability of the compounds disclosed herein was determined by measuring half-life (T1/2) of the compounds in the presence of mouse liver microsomes (MLM) or human liver microsomes (BILM).
(§3) Intermediate solution: 5 μL of compound and control stock solution (10 mM in dimethyl sulfoxide (DMSO)) were diluted with 495 μL of acetonitrile (ACN) (intermediate solution concentration: 100 μM, 99% ACN).
(§4) Working solution: 50 μL of compound and control intermediate solution (100 μM) were diluted with 450 μL of 100 mM potassium phosphate buffer (working solution concentration: 10 μM, 9.9% ACN).
(§5) Controls used in this assay: Testosterone, Diclofenac, and Propafenone.
(§6) Preparation Procedure: The appropriate amount of NADPH powder was weighed and diluted into a 10 mM MgCl2 solution (working solution concentration: 10 unit/mL; final concentration in reaction system: 1 unit/mL).
(§7) The appropriate concentrations of microsome working solutions were prepared in 100 mM potassium phosphate buffer.
(§8) Cold (4° C.) acetonitrile (CAN) containing 200 ng/mL tolbutamide and 200 ng/mL labetalol as internal standards (IS) was used as the stop solution.
(§9) Using an Apricot automation workstation, 10 μL/well of compound working solution were added to all 96-well reaction plates except the blank (T0, T5, T10, T20, T30, T60, and NCF60).
(§10) An Apricot automation workstation was used to add 80 μL/well of microsome solution to all reaction plates (Blank, T0, T5, T10, T20, T30, T60, and NCF60).
(§11) All reaction plates containing mixtures of compound and microsomes were pre-incubated at 37° C. for 10 minutes.
(§12) An Apricot automation workstation was used to add 10 μL/well of 100 mM potassium phosphate buffer to reaction plate NCF60.
(§13) Reaction plate NCF60 was incubated at 37° C. for 60 minutes.
(§14) After pre-incubation, an Apricot automation workstation was used to add 10 μL/well of NADPH regenerating system to every reaction plate except NCF60 (Blank, T0, T5, T10, T20, T30, and T60) to start the reaction. Final concentration of each component in incubation medium: Microsome (0.5 mg protein/mL); Test Compound (1 μM); Control Compound (1 μM); Acetonitrile (0.99%); DMSO (0.01%).
(§15) The reaction plates were incubated at 37° C. for 0 minute (T0, stop solution was added prior to microsome and NADPH solutions), 5 minutes (T5), 10 minutes (T10), 20 minutes (T20), 30 minutes (T30), 60 minutes (T60).
(§16) An Apricot automation workstation was used to add 300 μL/well of stop solution to each reaction plate at its appropriate end time point to terminate the reaction.
(§17) Each plate was sealed and shaken for 10 minutes.
(§18) After shaking, each plate was centrifuged at 4000 rpm and 4° C. for 20 minutes.
(§19) During centrifugation, an Apricot automation workstation was used to add 300 µL/well of HPLC grade water to eight new 96-well plates.
(§20) After centrifugation, an Apricot automation workstation was used to transfer 100 μL of supernatant from each reaction plate to its corresponding bioanaylsis plate.
(§21) Each bioanalysis plate was sealed and shaken for 10 minutes prior to LC-MS/MS analysis.
(§22) The equation of first order kinetics was used to calculate T1/2 and CLint(mic) (μL/min/mg).

[4] = Metabolic stability in mouse liver microsomes; format: in vitro ADME; details: CD-1 mouse liver microsomes 0.5 mg protein/mL, test compound 1 μM, 37° C.; read-out: T1/2 in MLM
Method: as §2, §3, §4, §5, §6, §7, §8, §9, §10, §11, §12, §13, §14, §15, §16, §17, §18, §19, §20, §21, §22

SMILES	IC50 [1]	IC50 (T24/83 cells)	IC50 [2]	half-life at 1 μM [3]	half-life at 1 μM [4]
Cn1cncc1[C@@]1(N)c2ccc(Cl)c(c2)OCCc2cccc(c2)-c2cc(=O)n(C3CC3)c3ccc1cc23 [(S)-30, (S)-3-amino-4^4-chloro-2^1-cyclopropyl-3-(1-methyl-1H-imidazol-5-yl)-2^1,2^2-dihydro-5-oxa-2(4,6)-quinolina-1,4(1,3)-dibenzenacycloheptaphan-2^2-one]	≤ 10 nM	50 to 500 nM	–	< 30 min	< 5 min
Cn1cnnc1[C@@]1(N)c2ccc(Cl)c(c2)OCCc2cccc(c2)-c2cc(=O)n(C3CC3)c3ccc1cc23 [(S)-35, (S)-3-amino-4^4-chloro-2^1-cyclopropyl-3-(4-methyl-4H-1,2,4-triazol-3-yl)-2^1,2^2-dihydro-5-oxa-2(4,6)-quinolina-1,4(1,3)-dibenzenacycloheptaphan-2^2-one]	≤ 10 nM	50 to 500 nM	–	< 30 min	< 5 min
Cn1cncc1[C@@]1(O)c2ccc(C#N)c(c2)OCCc2cccc(c2)-c2cc(=O)n(C)c3ccc1cc23 [(S)-36, (S)-3-hydroxy-2^1-methyl-3-(1-methyl-1H-imidazol-5-yl)-2^2-oxo-2^1,2^2-dihydro-5-oxa-2(4,6)-quinolina-1,4(1,3)-dibenzenacycloheptaphane-4^4-carbonitrile]	≤ 10 nM	≤ 50 nM	–	< 30 min	5 to 15 min
Cn1cnnc1[C@@]1(N)c2ccc(C#N)c(c2)OCCc2cccc(c2)-c2cc(=O)n(C)c3ccc1cc23 [(S)-39, (S)-3-amino-2^1-methyl-3-(4-methyl-4H-1,2,4-triazol-3-yl)-2^2-oxo-2^1,2^2-dihydro-5-oxa-2(4,6)-quinolina-1,4(1,3)-dibenzenacycloheptaphane-4^4-carbonitrile]	≤ 10 nM	≤ 50 nM	–	> 100 min	> 15 min
Cn1cncc1[C@@]1(N)c2ccc(Cl)c(c2)COc2cccc(c2)-c2cc(C#N)nc3ccc1cc23 [(S)-48, (S)-3-amino-4^4-chloro-3-(1-methyl-1H-imidazol-5-yl)-6-oxa-2(4,6)-quinolina-1,4(1,3)-dibenzenacyclohexaphane-2^2-carbonitrile]	≤ 10 nM	≤ 50 nM	> 1000 nM	–	–
Cn1cncc1C1(O)c2ccc(Cl)c(c2)COc2cccc(c2)-c2cc(=O)n(C)c3ccc1cc23 (stereo not drawn) [Compound 45, 4^4-chloro-3-hydroxy-2^1-methyl-3-(1-methyl-1H-imidazol-5-yl)-2^1,2^2-dihydro-6-oxa-2(4,6)-quinolina-1,4(1,3)-dibenzenacyclohexaphan-2^2-one]	≤ 10 nM	≤ 50 nM	–	> 100 min	> 15 min
Cn1cncc1C1(O)c2ccc(Cl)c(c2)CCOc2cccc(c2)-c2cc(=O)n(C)c3ccc1cc23 (stereo not drawn) [Compound 65, 4^4-chloro-3-hydroxy-2^1-methyl-3-(1-methyl-1H-imidazol-5-yl)-2^1,2^2-dihydro-7-oxa-2(4,6)-quinolina-1,4(1,3)-dibenzenacycloheptaphan-2^2-one]	≤ 10 nM	50 to 500 nM	–	< 30 min	5 to 15 min

More lines, now with the values ahead:

IC50 [1]	IC50 (T24/83 cells)	IC50 [2]	half-life at 1 μM [3]	half-life at 1 μM [4]	SMILES
≤ 10 nM	≤ 50 nM	100 to 1000 nM	–	–	Cn1cncc1[C@@]1(N)c2ccc(C#N)c(c2)CCc2cccc(c2)-c2cc(C#N)nc3ccc1cc23 [(R)-9, (R)-3-amino-3-(1-methyl-1H-imidazol-5-yl)-2(4,6)-quinolina-1,4(1,3)-dibenzenacyclohexaphane-2^2 4^4-dicarbonitrile]
≤ 10 nM	≤ 50 nM	100 to 1000 nM	–	–	Cn1cncc1[C@@]1(N)c2ccc(C#N)c(c2)OCc2cccc(c2)-c2cc(C#N)nc3ccc1cc23 [(S)-21, (S)-3-amino-3-(1-methyl-1H-imidazol-5-yl)-5-oxa-2(4,6)-quinolina-1,4(1,3)-dibenzenacyclohexaphane-2^2 4^4-dicarbonitrile]
≤ 10 nM	50 to 500 nM	–	< 30 min	< 5 min	Cn1cncc1[C@@]1(O)c2ccc(Cl)c(c2)OCCc2cccc(c2)-c2cc(=O)[nH]c3ccc1cc23 [(S)-25, (S)-4^4-chloro-3-hydroxy-3-(1-methyl-1H-imidazol-5-yl)-2^1,2^2-dihydro-5-oxa-2(4,6)-quinolina-1,4(1,3)-dibenzenacycloheptaphan-2^2-one]
≤ 10 nM	≤ 50 nM	–	< 30 min	< 5 min	[2H]C([2H])([2H])n1c(=O)cc2c3cc(ccc31)[C@@](O)(c1cncn1C)c1ccc(Cl)c(c1)OCCc1cccc-2c1 [(S)-28, (S)-4^4-chloro-3-hydroxy-2^1-(methyl-d3)-3-(1-methyl-1H-imidazol-5-yl)-2^1,2^2-dihydro-5-oxa-2(4,6)-quinolina-1,4(1,3)-dibenzenacycloheptaphan-2^2-one]
≤ 10 nM	50 to 500 nM	–	< 30 min	< 5 min	Cn1cncc1[C@@]1(O)c2ccc(Cl)c(c2)OCCc2cccc(c2)-c2cc(=O)n(C3CC3)c3ccc1cc23 [(S)-29, (S)-4^4-chloro-2^1-cyclopropyl-3-hydroxy-3-(1-methyl-1H-imidazol-5-yl)-2^1,2^2-dihydro-5-oxa-2(4,6)-quinolina-1,4(1,3)-dibenzenacycloheptaphan-2^2-one]
